Reference: patent US20110319405A1, “Treatment and prevention of diffuse parenchymal lung disease by selective active-site mTOR inhibitors” (The Board of Trustees of the Leland Stanford Junior …, priority 2010, published 2011)

Columns and labels:
[1] = system: TGF-β-stimulated control lung fibroblasts; experiment: TGF-β-mediated induction of stromal proteins in control lung fibroblasts (Western blot); assay type: cell-based, human
Procedure: (§1) Cell Culture and Reagents. Lung fibroblasts were isolated from patients undergoing surgical biopsy for the diagnosis of interstitial lung disease or lung transplant for IPF, and non-neoplastic tissue was obtained from patients undergoing surgical lung cancer resection, as described previously (Chang W. T. et al., J Biol Chem., 2001, 276, 2221-7). Fibroblasts were cultured in Dulbecco's modified Eagle's medium (DMEM) supplemented with 10% fetal bovine serum (FBS) at 5% CO2 at 37° C., and were used for studies for up to 5 passages after the initial preparation. For each experiment, cells were plated in culture vessels in DMEM complete medium and cultured until 70-80% in confluence, unless otherwise indicated.
(§2) Western Blot Analysis. Western blot analysis and band intensity quantitation were performed as described previously (Chang W. T. et al., J Biol Chem., 2001, 276, 2221-7). Briefly, the protein concentration was measured by Bradford assay (Bio-Rad) according to the manufacturer's instructions. An equal amount of protein was separated by SDS-PAGE and transferred to polyvinylidene difluoride membrane. […] The blot was visualized by enhanced chemiluminescence (GE Healthcare) and analyzed using a Kodak Image Station 4000R system (Carestream Health, Rochester, N.Y.).
In further studies, we examined if inhibition of mTORC1 and/or mTORC2 would limit TGF-β-mediated induction of stromal genes. […]

IPF fibroblasts = experiment: Basal expression of stromal proteins in IPF fibroblasts (Western blot); assay type: cell-based, human
Procedure: as §1
Lung tissue was obtained from patients undergoing surgical biopsy for the diagnosis of interstitial lung disease or lung transplant for IPF, and non-neoplastic tissue was obtained from patients undergoing surgical lung cancer resection. The tissue was minced into small pieces with a scalpel and digested with type I collagenase (1 mg/ml; Invitrogen) and hyaluronidase (125 units/ml; Sigma) at 37° C. with agitation for 18 h in Dulbecco's modified Eagle's medium (DMEM; Invitrogen) supplemented with 10% fetal bovine serum. The dissociated tissues were incubated without shaking for 5 min at room temperature, followed by the separation of cell-enriched supernatant into a new tube. The cell fraction was centrifuged at 250×g for 5 min, and the pellet was then resuspended in DMEM with 10% fetal bovine serum. […] Surviving fibroblasts were cultured in DMEM supplemented with 10% fetal bovine serum at 5% CO2 at 37 ° C. Each fibroblast culture was frozen at its earliest available passage and was used for studies for up to five passages. For each experiment, cells were plated in culture vessels in DMEM and cultured until 70-80% confluent, unless indicated otherwise. Cells were subjected to starvation by washing cells twice with 1× phosphate-buffered saline (PBS), followed by the addition of DMEM and 0.1% serum to each well and incubation for an additional 24 h. In the experiments for cell death induced by Glu-plasminogen (American Diagnostica Inc., Stamford, Conn.), phenol red-free DMEM was used.
as §2, with “N.Y.). […]” for “N.Y.).”

[2] = system: Akt (Ser473 and T308) activation; experiment: TGF-β-mediated activation of Akt in control lung fibroblasts (Western blot); assay type: cell-based, human
Procedure: as §1, §2
In further studies, we examined if inhibition of mTORC1 and/or mTORC2 would limit TGF-β-mediated induction of stromal genes.

[3] = system: Akt (Ser473 and T308) phosphorylation; experiment: Basal Akt phosphorylation in IPF fibroblasts (Western blot); assay type: cell-based, human; conditions: for suppression of basal Akt (Ser473) phosphorylation: dose-dependent, FIG. 1A/1B
Procedure: as §1
Lung tissue was obtained from patients undergoing surgical biopsy for the diagnosis of interstitial lung disease or lung transplant for IPF, and non-neoplastic tissue was obtained from patients undergoing surgical lung cancer resection. The tissue was minced into small pieces with a scalpel and digested with type I collagenase (1 mg/ml; Invitrogen) and hyaluronidase (125 units/ml; Sigma) at 37° C. with agitation for 18 h in Dulbecco's modified Eagle's medium (DMEM; Invitrogen) supplemented with 10% fetal bovine serum. The dissociated tissues were incubated without shaking for 5 min at room temperature, followed by the separation of cell-enriched supernatant into a new tube. The cell fraction was centrifuged at 250×g for 5 min, and the pellet was then resuspended in DMEM with 10% fetal bovine serum. […] Surviving fibroblasts were cultured in DMEM supplemented with 10% fetal bovine serum at 5% CO2 at 37 ° C. […]
as §2, with “instructions.” for “instructions. An equal amount of protein was separated by SDS-PAGE and transferred to polyvinylidene difluoride membrane.”, “N.Y.). […]” for “N.Y.).”

mTORC1 = mTORC1 (Homo sapiens, UniProt P42345); conditions: in vitro; cited from earlier work
mTORC2 = mTORC2 (Homo sapiens, UniProt P42345); conditions: in vitro; cited from earlier work
[4] = system: bleomycin-induced pulmonary fibrosis; experiment: Murine model of bleomycin-induced pulmonary fibrosis
Procedure: Murine model of bleomycin-induced pulmonary fibrosis. Six-week-old male C57BL/6 mice weighing between 20 to 23 g were obtained from The Jackson Laboratory (Bar Harbor, Me.) and all care was in accordance with the National Institutes of Health Guide for Animal Welfare Act. Mice were administrated 0.1 ml of sterile saline (N=5) or bleomycin (Blenoxane, Novaplus, 1.5 U/kg of body weight; VHA Inc., Nippon Kayaku Co., Tokyo, Japan) at day 0 via intratracheal instillation under anesthesia (Krishna, G. et al., Am J Pathol. 2001, 158, 997-1004). […] All mice were sacrificed on day 14 and the right lungs were first fixed by inflation with buffered 10% formalin solution, then incubated in the same solution for 24 hours. After paraffin-embedding, sections were processed, and stained with hematoxylin and eosin (H&E) for light microscopy. The left lungs were frozen in liquid nitrogen for subsequent analysis of hydroxyproline content.
Histological Scoring of Fibrosis. The severity of fibrosis from each lung section was assessed by Ashcroft score (Ashcroft T. et al., J Clin Pathol, 1988, 41, 467-70). Briefly, the grade of lung fibrosis was scored on a scale from 0 to 8 by examining 30 randomly chosen fields per sample at a magnification of ×100. Criteria for grading lung fibrosis were as follows: grade 0, normal lung; grade 1, minimal fibrous thickening of alveolar or bronchiolar walls; grade 3, moderate thickening of walls without obvious damage to lung architecture; grade 5, increased fibrosis with definite damage to lung structure and formation of fibrous bands or small fibrous masses; grade 7, severe distortion of structure and large fibrous areas; grade 8, total fibrous obliteration of fields. If there was difficulty in deciding between two odd-numbered categories, the field would be given the intervening even-numbered grade.

[5] = mice, PP242 30 mg/kg oral daily
Procedure: Six-week-old male C57BL/6 mice weighing between 20 to 23 g were obtained from The Jackson Laboratory (Bar Harbor, Me.) and all care was in accordance with the National Institutes of Health Guide for Animal Welfare Act. […] All mice were sacrificed on day 14 and the right lungs were first fixed by inflation with buffered 10% formalin solution, then incubated in the same solution for 24 hours. After paraffin-embedding, sections were processed, and stained with hematoxylin and eosin (H&E) for light microscopy. The left lungs were frozen in liquid nitrogen for subsequent analysis of hydroxyproline content.

[6] = TGF-β-treated control fibroblasts
[7] = control lung fibroblasts + TGF-β
[8] = PP242 30 mg/kg oral daily from Day -1, bleomycin 1.5 U/kg intratracheal, Day 14, vs bleomycin alone
[9] = mouse lung, PP242 30 mg/kg oral

O=c1[nH]c2ccccc2n1C1CCN(Cc2ccc(-c3nc4cc5[nH]cnc5cc4nc3-c3ccccc3)cc2)CC1 [Akti VIII]
inhibition of TGF-β induction of FN (in words) [1, 6]: inhibited | inhibition of TGF-β induction of type I collagen (in words) [1, 6]: inhibited | suppression of basal FN expression (in words) (IPF fibroblasts; FIG. 3C): suppressed | suppression of basal type I collagen expression (in words) (IPF fibroblasts; FIG. 3C): suppressed | suppression of basal α-SMA expression (in words) (IPF fibroblasts; FIG. 3C): suppressed

COc1ccc(-c2ccc3c(N4CCOCC4)nc(N4C[C@@H](C)O[C@@H](C)C4)nc3n2)cc1CO [Ku-0063794]
inhibition of TGF-β induction of PAI-1 [1, 7]: 30% | blocking of TGF-β activation of Akt (Ser473) [2]: blocked | blocking of TGF-β activation of Akt (T308) [2]: blocked | suppression of basal Akt (T308) phosphorylation ([3]; FIG. 1B): more effective than rapamycin or PP242 | suppression of basal Akt (Ser473) phosphorylation [3]: suppressed

CC(C)n1nc(-c2cccc(C(=O)NC3=NCCS3)c2)c2c(N)ncnc21 [PP30]
inhibition of mTOR in mTORC1 (mTORC1): inhibit | inhibition of mTOR in mTORC2 (mTORC2): inhibit

CC(C)n1nc(-c2cc3cc(O)ccc3[nH]2)c2c(N)ncnc21 [PP242]
reduction in hydroxyproline content [4, 8]: 40% | reduction in the Ashcroft score [4, 8]: 70% | positive staining for picosirius red (marker of new collagen synthesis) ([4]; mouse lung after bleomycin, PP242 30 mg/kg oral): marked reduction | accumulation of α-SMA-positive fibroblasts following bleomycin [4, 9]: inhibited | bleomycin-mediated induction of MTS1/S100A4 [4, 9]: significantly inhibited | bleomycin-mediated induction of PAI-1 [4, 9]: a trend, but not a statistically significant inhibition | bleomycin-mediated induction of SPARC [4, 9]: significantly inhibited | bleomycin-mediated induction of matrix metalloproteinase 7/matrilysin 1 (MMP-7) [4, 9]: significantly inhibited | Ashcroft score (scale from 0 to 8) ([4]; saline+PP242 group, no bleomycin): zero | tolerability [5]: well tolerated | suppression of basal Akt (Ser473) phosphorylation [3]: suppressed

CO[C@H]1C[C@@H]2CC[C@@H](C)[C@@](O)(O2)C(=O)C(=O)N2CCCC[C@H]2C(=O)O[C@H]([C@H](C)C[C@@H]2CC[C@@H](O)[C@H](OC)C2)CC(=O)[C@H](C)/C=C(\C)[C@@H](O)[C@@H](OC)C(=O)[C@H](C)C[C@H](C)/C=C/C=C/C=C/1C [rapamycin]
blocking of TGF-β induction of FN [1, 7]: 30%-50% | blocking of TGF-β induction of SPARC [1, 7]: 30%-50% | blocking of TGF-β induction of α-SMA [1, 7]: 30%-50% | inhibition of TGF-β induction of PAI-1 [1, 7]: 30% | inhibition of type I collagen in the presence of TGF-β ([1]; control lung fibroblasts + TGF-β, FIG. 2C): 45% | inhibition of basal expression of type I collagen (IPF fibroblasts): 50%
